US5273991A, “Imidazole-containing compositions and methods of use thereof analogs of distamycin” (Research Corporation Technologies, Inc., priority 1992, dated 1993)
pIC50: −log10 of the molar value.

Legend:
poly(dA.dT) = assay: circular dichroism (CD) titration, poly(dA.dT); assay type: binding
Procedure: The DNA binding properties of the present compounds were assessed by circular dichroism (CD) titration experiments. Methods for CD titration can be found, for example, in Zimmer et al. (1986) Prog. Biophys. Molec. Biol 47, 31. The conformation of DNA can be readily determined by CD experiments, and for B-DNA, characteristic positive and negative Cotton effects are observed at 260 and 245 nm, respectively.
The interaction of Compounds 6-10 to a number of DNAs [calf thymus, poly(dA dT) and poly(dG dC)] were analyzed by CD titration studies. All the CD titration experiments were performed using identical procedures, concentrations of DNA, and increments of drug:DNA ratios (or `r`, i.e. moles of drug to moles of DNA base pairs). Therefore, the differences observed in the CD spectra for the titration of each of the compounds to the polydeoxynucleotides may be directly compared to reflect their DNA binding properties.
All experiments were performed with a continuous flow of nitrogen purging the polarimeter. A 1 mm path length jacketed cell was used and all experiments were done at room temperature. Initially, DNA [0.02 μ moles (base pairs), 130 μL] was placed in the cell and the spectrum of the DNA alone was collected. Aliquots of drug were added and the spectra collected. […] The scan parameters were set and standard for all experiments. The spectra were collected from 400 nm to 200 nm. The sensitivity was set at 1 mdeg and the scan speed was set at 20 nm per minute. Three scans were accumulated and automatically averaged by the computer. The λmax and ellipticity (mdeg) for each spectrum were collected from the raw scans and the final plots were smoothed by the noise reduction program on the computer. […] The induced CD band is presumably due to the uv absorption π to π^* transition of the drug in the drug:DNA complex. […] Therefore interaction of these drugs with DNA causes only minor conformational changes in the double helix.

MALME-3M = assay: NCI cytotoxicity screen (SRB); assay type: cell-based, human
Procedure: (§1) Compounds 6, 7, 9 and 10 were tested for cytotoxic properties by the National Cancer Institute, Bethesda, Md. The anticancer drug screen utilized a panel of 60 human tumor cell lines organized into subpanels representing leukemia, melanoma, and cancers of the lung, colon, kidney, ovary and central nervous system and is described by Monks et al. (1991) Journal of the National Cancer Institute 83, 757, which is incorporated herein by reference.
(§2) Cell lines were inoculated onto microtiter plates and preincubated for 24-28 hours. 100 μL aliquots of each compound were added to the appropriate microtiter plate wells in each of five 10-fold dilutions starting from a maximum concentration of 10^-4 M in water or DMSO. Cultures were then incubated for an additional 48 hours. Cells were then fixed in situ, followed by staining with sulforhodamine B (SRB), which binds to basic amino acids of cellular macromolecules. The solubilized stain was measured spectrophotometrically to determine relative cell growth or viability in treated and untreated cells. The monoimidazole analogs of Compounds 6, 7, 9 and 10 and the formamido analog corresponding to Compounds 7 and 10 are devoid of activity against the panel of cancer cell lines in Table III.

SF-295 = assay: NCI cytotoxicity screen (SRB); assay type: cell-based, human
Procedure: as §1, §2

HCT-15 = assay: NCI cytotoxicity screen (SRB); assay type: cell-based, human
Procedure: as §1, §2

NCI-H23 = assay: NCI cytotoxicity screen (SRB); assay type: cell-based, human
Procedure: as §1, §2

HCT-116 = assay: NCI cytotoxicity screen (SRB); assay type: cell-based, human
Procedure: as §1, §2

DLD-1 = assay: NCI cytotoxicity screen (SRB); assay type: cell-based, human
Procedure: as §1, §2

NCI-H226 = assay: NCI cytotoxicity screen (SRB); assay type: cell-based, human
Procedure: as §1, §2

NCI-H460 = assay: NCI cytotoxicity screen (SRB); assay type: cell-based, human
Procedure: as §1, §2

HCC-2998 = assay: NCI cytotoxicity screen (SRB); assay type: cell-based, human
Procedure: as §1, §2

DMS-114 = assay: NCI cytotoxicity screen (SRB); assay type: cell-based, human
Procedure: as §1, §2

NCI-H322M = assay: NCI cytotoxicity screen (SRB); assay type: cell-based, human
Procedure: as §1, §2

SW-620 = assay: NCI cytotoxicity screen (SRB); assay type: cell-based, human
Procedure: as §1, §2

NCI-H522 = assay: NCI cytotoxicity screen (SRB); assay type: cell-based, human
Procedure: as §1, §2

KM20L2 = assay: NCI cytotoxicity screen (SRB); assay type: cell-based, human
Procedure: as §1, §2

K-562 = assay: NCI cytotoxicity screen (SRB); assay type: cell-based, human
Procedure: as §1, §2

DMS-273 = assay: NCI cytotoxicity screen (SRB); assay type: cell-based, human; conditions: DMS-273; subsequent test date
Procedure: as §1, §2

HT29 = assay: NCI cytotoxicity screen (SRB); assay type: cell-based, human
Procedure: as §1, §2

SF-268 = assay: NCI cytotoxicity screen (SRB); assay type: cell-based, human
Procedure: as §1, §2

HOP-62 = assay: NCI cytotoxicity screen (SRB); assay type: cell-based, human
Procedure: as §1, §2

COLO-205 = assay: NCI cytotoxicity screen (SRB); assay type: cell-based, human
Procedure: as §1, §2

A549/ATCC = assay: NCI cytotoxicity screen (SRB); assay type: cell-based, human
Procedure: as §1, §2

Molt-4 = assay: NCI cytotoxicity screen (SRB); assay type: cell-based, human
Procedure: as §1, §2

Compound: CN(C)CCNC(=O)c1nc(NC(=O)c2nc(NC(=O)c3ccc(N(CCCl)CCCl)cc3)cn2C)cn1C [Compound 6, N-(N',N'-dimethylaminoethyl)-1-methyl-4-{4-[4,4-bis(2-chloroethyl)aminobenzamido]-1-methylimidazole-2-carboxamido}imidazole-2-carboxamide]
- induced negative CD band, ellipticity (poly(dA.dT); 310 nm, r'=0.2): 0.4 mdeg
- induced positive CD band, ellipticity (poly(dA.dT); 350 nm, r'=0.2): 1.8 mdeg
- isobestic point (poly(dA.dT); poly(dA.dT)): 315 nm
- pIC50 (MALME-3M; 48 h, Melanoma MALME-3M): 5.21
- pIC50 (MALME-3M; MALME-3M, subsequent test date): 4.19
- pIC50 (SF-295; 48 h, CNS Cancer SF-295): 4.36
- pIC50 (SF-295; SF-295, subsequent test date): 4.48
- pIC50 (HCT-15; 48 h, Colon Cancer HCT-15): 4.39
- pIC50 (HCT-15; HCT-15, subsequent test date): 4.36
- pIC50 (NCI-H23; 48 h, Non-Small Cell Lung Cancer NCI-H23): 4.33
- pIC50 (NCI-H23; NCI-H23, subsequent test date): 4.36
- pIC50 (HCT-116; 48 h, Colon Cancer HCT-116): 5.18
- pIC50 (HCT-116; HCT-116, subsequent test date): 5.17
- pIC50 (DLD-1; 48 h, Colon Cancer DLD-1): 4.33
- pIC50 (DLD-1; DLD-1, subsequent test date): 4.26
- pIC50 (NCI-H226; 48 h, Non-Small Cell Lung Cancer NCI-H226): 4.21
- pIC50 (NCI-H226; NCI-H226, subsequent test date): 4.21
- pIC50 (NCI-H460; 48 h, Non-Small Cell Lung Cancer NCI-H460): 4.34
- pIC50 (NCI-H460; NCI-H460, subsequent test date): 4.45
- pIC50 (HCC-2998; 48 h, Colon Cancer HCC-2998): 4.47
- pIC50 (HCC-2998; HCC-2998, subsequent test date): 5.09
- pIC50 (DMS-114; 48 h, Small Cell Lung Cancer DMS-114): 5.23
- pIC50 (DMS-114; DMS-114, subsequent test date): 5.30
- pIC50 (NCI-H322M; 48 h, Non-Small Cell Lung Cancer NCI-H322M): 4.39
- pIC50 (NCI-H322M; NCI-H322M, subsequent test date): 4.29
- pIC50 (SW-620; 48 h, Colon Cancer SW-620): 5.00
- pIC50 (SW-620; SW-620, subsequent test date): 4.92
- pIC50 (NCI-H522; 48 h, Non-Small Cell Lung Cancer NCI-H522): 5.16
- pIC50 (NCI-H522; NCI-H522, subsequent test date): 5.24
- pIC50 (KM20L2; 48 h, Colon Cancer KM20L2): 5.17
- pIC50 (KM20L2; KM20L2, subsequent test date): 4.70
- pIC50 (K-562; 48 h, Leukemia K-562): 4.76
- pIC50 (K-562; K-562, subsequent test date): 4.91
- pIC50 (DMS-273): 4.50
- pIC50 (HT29; 48 h, Colon Cancer HT29): 5.23
- pIC50 (HT29; HT29, subsequent test date): 4.56
- pIC50 (SF-268; 48 h, CNS Cancer SF-268): 4.30
- pIC50 (SF-268; SF-268, subsequent test date): 5.04
- pIC50 (HOP-62; 48 h, Non-Small Cell Lung Cancer HOP-62): 4.28
- pIC50 (HOP-62; HOP-62, subsequent test date): 4.30
- pIC50 (COLO-205; 48 h, Colon Cancer COLO-205): 5.23
- pIC50 (COLO-205; COLO-205, subsequent test date): 5.13
- pIC50 (A549/ATCC; 48 h, Non-Small Cell Lung Cancer A549/ATCC): 4.23
- pIC50 (A549/ATCC; A549/ATCC, subsequent test date): 4.42
- pIC50 (Molt-4; 48 h, Leukemia Molt-4): 4.74
- pIC50 (Molt-4; Molt-4, subsequent test date): < 4.00
